Several values for one entry are separate records, joined by “and”; a condition that tells them apart may be missing. Equal entries are not always repeated. Where two headings read alike, the source gives them in different places.
What was measured:
[1] = test system: β1-AR mutants of residues that interact with Gs; assay: cAMP assay, dose-response, summary over mutants of Gs-interacting residues; assay type: cell-based, turkey; conditions: range over mutants, Fig. 5c,d
wild-type turkey β1-AR [2] = target: T1, wild-type turkey β1-AR (Meleagris gallopavo, UniProt P07700); conditions: cited from earlier work
T1 sequence (P07700 whole entry): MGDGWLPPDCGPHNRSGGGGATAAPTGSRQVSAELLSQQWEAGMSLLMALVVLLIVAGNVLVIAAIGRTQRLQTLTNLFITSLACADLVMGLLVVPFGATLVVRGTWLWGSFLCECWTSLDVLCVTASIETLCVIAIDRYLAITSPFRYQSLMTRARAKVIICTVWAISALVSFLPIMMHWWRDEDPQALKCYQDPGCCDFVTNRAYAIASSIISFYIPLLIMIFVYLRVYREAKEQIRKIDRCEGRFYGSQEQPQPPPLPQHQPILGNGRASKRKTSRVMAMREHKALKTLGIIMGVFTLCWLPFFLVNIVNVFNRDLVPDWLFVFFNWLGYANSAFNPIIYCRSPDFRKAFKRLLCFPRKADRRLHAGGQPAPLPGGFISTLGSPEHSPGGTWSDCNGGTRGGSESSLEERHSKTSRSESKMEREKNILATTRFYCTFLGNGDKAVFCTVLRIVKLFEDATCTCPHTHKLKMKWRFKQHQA

wild-type turkey β1-AR [3] = target: T1, wild-type turkey β1-AR; assay: cAMP assay, time course, transfected CHO cells; assay type: cell-based; conditions: for cAMP, time course: WT
Experimental: (§1) CHO cells (transfected with a control empty vector or wild-type or mutant turkey β1-AR) were plated onto six-well plates, and were pre-incubated with culture medium buffered with 0.5 mM IBMX for 30 min at 37 °C[20]. […] After culture medium removal, cells were treated with 0.1 M HCl for 10 minutes at room temperature. After centrifugation, the supernatant was used for cAMP quantification using the Direct Cyclic AMP Enzyme Immunoassay kit (Enzo Life Sciences). […] The cAMP assays were repeated three times, and the data are represented as mean ± SD of the three independent experiments. The analysis was done using the log(agonist) vs. response function of Prism 8 (GraphPad)[20].

turkey β1-AR E233^5.64A = turkey β1-AR E233^5.64A (Meleagris gallopavo, UniProt P07700, E233A); assay type: cell-based
Sequence of turkey β1-AR E233^5.64A (P07700 whole entry E233A): as the sequence (P07700 whole entry) above, with E233A counted along it
Experimental: as §1

turkey β1-AR P146^ICL2A = turkey β1-AR P146^ICL2A (Meleagris gallopavo, UniProt P07700, P146A); assay type: cell-based
Sequence of turkey β1-AR P146^ICL2A (P07700 whole entry P146A): as the sequence (P07700 whole entry) above, with P146A counted along it
Experimental: as §1

turkey β1-AR F147^ICL2A = turkey β1-AR F147^ICL2A (Meleagris gallopavo, UniProt P07700, F147A); assay type: cell-based
Sequence of turkey β1-AR F147^ICL2A (P07700 whole entry F147A): as the sequence (P07700 whole entry) above, with F147A counted along it
Experimental: as §1

turkey β1-AR Q237^5.68A = turkey β1-AR Q237^5.68A (Meleagris gallopavo, UniProt P07700, Q237A); assay type: cell-based; conditions: for cAMP level: Fig 5c,e source data, Q237A
Sequence of turkey β1-AR Q237^5.68A (P07700 whole entry Q237A): as the sequence (P07700 whole entry) above, with Q237A counted along it
Experimental: as §1

turkey β1-AR V230^5.61A = turkey β1-AR V230^5.61A (Meleagris gallopavo, UniProt P07700, V230A); assay type: cell-based; conditions: for cAMP level: Fig 5c,e source data, V230A; for cAMP, time course: V2305.61A
Sequence of turkey β1-AR V230^5.61A (P07700 whole entry V230A): as the sequence (P07700 whole entry) above, with V230A counted along it
Experimental: as §1

turkey β1-AR S151^ICL2A = turkey β1-AR S151^ICL2A (Meleagris gallopavo, UniProt P07700, S151A); assay type: cell-based; conditions: for cAMP, time course: S151ICL2A
Sequence of turkey β1-AR S151^ICL2A (P07700 whole entry S151A): as the sequence (P07700 whole entry) above, with S151A counted along it
Experimental: as §1

wild-type turkey β1-AR [4] = target: T1, wild-type turkey β1-AR; assay type: cell-based
Experimental: as §1

turkey β1-AR T203^ECL2A = turkey β1-AR T203^ECL2A (Meleagris gallopavo, UniProt P07700, T203A); assay: cell-based
Sequence of turkey β1-AR T203^ECL2A (P07700 whole entry T203A): as the sequence (P07700 whole entry) above, with T203A counted along it
Experimental: as §1

turkey β1-AR V326^7.36A = turkey β1-AR V326^7.36A (Meleagris gallopavo, UniProt P07700, V326A); assay: cell-based
Sequence of turkey β1-AR V326^7.36A (P07700 whole entry V326A): as the sequence (P07700 whole entry) above, with V326A counted along it
Experimental: as §1

turkey β1-AR W330^7.40A = turkey β1-AR W330^7.40A (Meleagris gallopavo, UniProt P07700, W330A); assay: cell-based; conditions: for cAMP level: Fig 3 source data, W330A
Sequence of turkey β1-AR W330^7.40A (P07700 whole entry W330A): as the sequence (P07700 whole entry) above, with W330A counted along it
Experimental: as §1

turkey β1-AR W117^3.28A = turkey β1-AR W117^3.28A (Meleagris gallopavo, UniProt P07700, W117A); assay: cell-based
Sequence of turkey β1-AR W117^3.28A (P07700 whole entry W117A): as the sequence (P07700 whole entry) above, with W117A counted along it
Experimental: as §1

turkey β1-AR L101^2.64A = turkey β1-AR L101^2.64A (Meleagris gallopavo, UniProt P07700, L101A); assay: cell-based
Sequence of turkey β1-AR L101^2.64A (P07700 whole entry L101A): as the sequence (P07700 whole entry) above, with L101A counted along it
Experimental: as §1

[5] = CHO, 5 min, read-out: Efficacy (% of max cAMP level)

CC(CCc1ccc(O)cc1)NCCc1ccc(O)c(O)c1 (centres unmarked) [Dobutamine, dobutamine]
change of EC50 by β1-AR mutations [1]: 2 to 7 fold | reduction of the cAMP response by β1-AR mutations [1]: 17–44% | ligand efficacy class (wild-type turkey β1-AR [2]): partial agonist | cAMP, time course (wild-type turkey β1-AR [3]; 0 min): 34 and 32 and 33 | cAMP, time course (wild-type turkey β1-AR [3]; 0.5 min): 35 and 36 and 37 | cAMP, time course (wild-type turkey β1-AR [3]; 1 min): 57 and 46 and 50 | cAMP, time course (wild-type turkey β1-AR [3]; 2 min): 132 and 139 and 131 | cAMP, time course (wild-type turkey β1-AR [3]; 5 min): 335 and 327 and 343 | cAMP, time course (wild-type turkey β1-AR [3]; 10 min): 326 and 316 and 321 | cAMP, time course (wild-type turkey β1-AR [3]; 15 min): 273 and 271 and 269 | cAMP, time course (wild-type turkey β1-AR [3]; 20 min): 179 and 172 and 177 | cAMP, time course (wild-type turkey β1-AR [3]; 25 min): 125 | cAMP signal, time course (wild-type turkey β1-AR [3]; ligand 10^-3 M, time 0 min): 30 and 31 and 29 | cAMP signal, time course (wild-type turkey β1-AR [3]; ligand 10^-3 M, time 0.5 min): 33 and 38 and 31 | cAMP signal, time course (wild-type turkey β1-AR [3]; ligand 10^-3 M, time 1 min): 63 and 68 and 61 | cAMP signal, time course (wild-type turkey β1-AR [3]; ligand 10^-3 M, time 2 min): 163 and 166 and 154 | cAMP signal, time course (wild-type turkey β1-AR [3]; ligand 10^-4 M, time 0 min): 32 and 33 and 28 | cAMP signal, time course (wild-type turkey β1-AR [3]; ligand 10^-4 M, time 0.5 min): 39 and 41 and 34 | cAMP signal, time course (wild-type turkey β1-AR [3]; ligand 10^-4 M, time 1 min): 55 and 61 | cAMP signal, time course (wild-type turkey β1-AR [3]; ligand 10^-4 M, time 2 min): 143 and 151 and 141 | cAMP signal, time course (wild-type turkey β1-AR [3]; ligand 10^-5 M, time 0 min): 29 and 33 and 31 | cAMP signal, time course (wild-type turkey β1-AR [3]; ligand 10^-5 M, time 0.5 min): 34 and 38 and 33 | cAMP signal, time course (wild-type turkey β1-AR [3]; ligand 10^-5 M, time 1 min): 47 and 51 and 49 | cAMP signal, time course (wild-type turkey β1-AR [3]; ligand 10^-5 M, time 2 min): 133 and 145 and 130 | cAMP signal, time course (wild-type turkey β1-AR [3]; ligand 10^-6 M, time 0 min): 30 and 27 | cAMP signal, time course (wild-type turkey β1-AR [3]; ligand 10^-6 M, time 0.5 min): 39 and 37 and 38 | cAMP signal, time course (wild-type turkey β1-AR [3]; ligand 10^-6 M, time 1 min): 54 and 56 and 55 | cAMP signal, time course (wild-type turkey β1-AR [3]; ligand 10^-6 M, time 2 min): 124 and 122 and 120 | cAMP signal, time course (wild-type turkey β1-AR [3]; ligand 10^-7 M, time 0 min): 28 and 33 and 26 | cAMP signal, time course (wild-type turkey β1-AR [3]; ligand 10^-7 M, time 0.5 min): 34 and 36 and 32 | cAMP signal, time course (wild-type turkey β1-AR [3]; ligand 10^-7 M, time 1 min): 37 and 41 and 36 | cAMP signal, time course (wild-type turkey β1-AR [3]; ligand 10^-7 M, time 2 min): 50 and 56 | cAMP signal, time course (wild-type turkey β1-AR [3]; ligand 10^-8 M, time 0 min): 27 and 28 and 26 | cAMP signal, time course (wild-type turkey β1-AR [3]; ligand 10^-8 M, time 0.5 min): 31 and 33 and 29 | cAMP signal, time course (wild-type turkey β1-AR [3]; ligand 10^-8 M, time 1 min): 34 and 37 | cAMP signal, time course (wild-type turkey β1-AR [3]; ligand 10^-8 M, time 2 min): 43 and 44 | cAMP signal, time course (wild-type turkey β1-AR [3]; ligand 10^-9 M, time 0 min): 27 and 31 and 26 | cAMP signal, time course (wild-type turkey β1-AR [3]; ligand 10^-9 M, time 0.5 min): 31 and 36 and 32 | cAMP signal, time course (wild-type turkey β1-AR [3]; ligand 10^-9 M, time 1 min): 32 and 34 and 27 | cAMP signal, time course (wild-type turkey β1-AR [3]; ligand 10^-9 M, time 2 min): 37 and 40 and 35 | time-dependent cAMP response (phases) (wild-type turkey β1-AR [3]; near-saturating concentration (EC90), Fig. 6): a slower signal activation phase and an even slower signal termination phase | EC50 (turkey β1-AR E233^5.64A): 7.08 µM | Emax (turkey β1-AR E233^5.64A; [5]): 41 ± 3.7% | EC50 (turkey β1-AR P146^ICL2A): 4.07 µM | Emax (turkey β1-AR P146^ICL2A; [5]): 38 ± 2.4% | EC50 (turkey β1-AR F147^ICL2A): 11.5 µM | Emax (turkey β1-AR F147^ICL2A; [5]): 17 ± 0.2% | cAMP level (turkey β1-AR F147^ICL2A; Fig 5c,e source data, F147A, log[ligand] (M) -9): 32 | EC50 (turkey β1-AR Q237^5.68A): 9.55 µM | Emax (turkey β1-AR Q237^5.68A; [5]): 21 ± 1.7% | cAMP level (turkey β1-AR Q237^5.68A; log[ligand] (M) -3): 103 and 114 and 116 | cAMP level (turkey β1-AR Q237^5.68A; log[ligand] (M) -4): 97 and 112 and 118 | cAMP level (turkey β1-AR Q237^5.68A; log[ligand] (M) -5): 66 and 82 and 77 | cAMP level (turkey β1-AR Q237^5.68A; log[ligand] (M) -6): 39 and 42 | cAMP level (turkey β1-AR Q237^5.68A; log[ligand] (M) -7): 36 and 40 and 39 | cAMP level (turkey β1-AR Q237^5.68A; log[ligand] (M) -8): 34 and 39 and 40 | cAMP level (turkey β1-AR Q237^5.68A; log[ligand] (M) -9): 32 and 37 and 40 | EC50 (turkey β1-AR V230^5.61A): 6.17 µM | Emax (turkey β1-AR V230^5.61A; [5]): 36 ± 1.1% | cAMP level (turkey β1-AR V230^5.61A; log[ligand] (M) -3): 167 and 175 and 168 | cAMP level (turkey β1-AR V230^5.61A; log[ligand] (M) -4): 164 and 173 and 169 | cAMP level (turkey β1-AR V230^5.61A; log[ligand] (M) -5): 121 and 131 and 129 | cAMP level (turkey β1-AR V230^5.61A; log[ligand] (M) -6): 39 and 44 and 43 | cAMP level (turkey β1-AR V230^5.61A; log[ligand] (M) -7): 36 and 40 and 38 | cAMP level (turkey β1-AR V230^5.61A; log[ligand] (M) -8): 35 and 37 | cAMP level (turkey β1-AR V230^5.61A; log[ligand] (M) -9): 32 and 37 and 36 | cAMP, time course (turkey β1-AR V230^5.61A; 0 min): 30 and 28 and 33 | cAMP, time course (turkey β1-AR V230^5.61A; 0.5 min): 32 and 35 and 38 | cAMP, time course (turkey β1-AR V230^5.61A; 1 min): 34 and 37 and 35 | cAMP, time course (turkey β1-AR V230^5.61A; 2 min): 45 and 41 and 43 | cAMP, time course (turkey β1-AR V230^5.61A; 5 min): 126 and 122 and 128 | cAMP, time course (turkey β1-AR V230^5.61A; 10 min): 106 and 105 and 108 | cAMP, time course (turkey β1-AR V230^5.61A; 15 min): 61 and 56 | cAMP, time course (turkey β1-AR V230^5.61A; 20 min): 52 and 50 and 51 | cAMP, time course (turkey β1-AR V230^5.61A; 25 min): 46 and 44 and 47 | cAMP, time course (turkey β1-AR V230^5.61A; 30 min): 53 and 47 and 55 | EC50 (turkey β1-AR S151^ICL2A): 10.5 µM | Emax (turkey β1-AR S151^ICL2A; [5]): 38 ± 1.6% | cAMP, time course (turkey β1-AR S151^ICL2A; 0 min): 33 and 34 and 31 | cAMP, time course (turkey β1-AR S151^ICL2A; 0.5 min): 39 and 36 and 32 | cAMP, time course (turkey β1-AR S151^ICL2A; 1 min): 38 and 36 | cAMP, time course (turkey β1-AR S151^ICL2A; 2 min): 41 and 45 and 47 | cAMP, time course (turkey β1-AR S151^ICL2A; 5 min): 104 and 103 | cAMP, time course (turkey β1-AR S151^ICL2A; 10 min): 98 and 96 and 94 | cAMP, time course (turkey β1-AR S151^ICL2A; 15 min): 58 and 63 and 55 | cAMP, time course (turkey β1-AR S151^ICL2A; 20 min): 48 and 49 and 46 | cAMP, time course (turkey β1-AR S151^ICL2A; 25 min): 44 and 46 and 42 | cAMP, time course (turkey β1-AR S151^ICL2A; 30 min): 42 and 49 and 46 | EC50 (wild-type turkey β1-AR [4]): 1580 nM | Emax (wild-type turkey β1-AR [4]; [5]): 100% | EC50 (turkey β1-AR T203^ECL2A): 1580 nM | Emax (turkey β1-AR T203^ECL2A; [5]): 99 ± 0.7% | EC50 (turkey β1-AR V326^7.36A): 7.59 µM | Emax (turkey β1-AR V326^7.36A; [5]): 38 ± 1.2% | EC50 (turkey β1-AR W330^7.40A): 2950 nM | Emax (turkey β1-AR W330^7.40A; [5]): 85 ± 0.8% | cAMP level (turkey β1-AR W330^7.40A; log[ligand] (M) -3): 346 and 351 and 347 | cAMP level (turkey β1-AR W330^7.40A; log[ligand] (M) -4): 342 and 348 and 346 | cAMP level (turkey β1-AR W330^7.40A; log[ligand] (M) -5): 266 and 272 and 271 | cAMP level (turkey β1-AR W330^7.40A; log[ligand] (M) -6): 127 and 136 and 131 | cAMP level (turkey β1-AR W330^7.40A; log[ligand] (M) -7): 58 and 65 and 63 | cAMP level (turkey β1-AR W330^7.40A; log[ligand] (M) -8): 43 and 48 | cAMP level (turkey β1-AR W330^7.40A; log[ligand] (M) -9): 38 and 45 and 43 | EC50 (turkey β1-AR W117^3.28A): 7.76 µM | Emax (turkey β1-AR W117^3.28A; [5]): 16 ± 0.8% | EC50 (turkey β1-AR L101^2.64A): 6.61 µM | Emax (turkey β1-AR L101^2.64A; [5]): 37 ± 1.1%
